From patent publication US20240115488A1, “COMPOSITION FOR ORAL CAVITY CARE” (ICHIMARU PHARCOS CO., LTD., priority 2021, published 2024) come the findings set out here.

This assay concerns Streptococcus mutans (NBRC13955). The class given is cell-based. Conditions: Cont. group = 100.

Where two headings read alike, the source gives them in different places.

Method: The Streptococcus mutans was cultured in Todd-Hewitt Broth at 37° C. overnight (approximately 16 hours), and proliferated until the absorbance OD660 measured at 660 nm reached to a value in the range from 0.8 to 1.4. The Streptococcus mutans proliferated was used. Based on the absorbance measured, the Streptococcus mutans was diluted with PBS such that OD660 was 0.125, to prepare a bacterial culture to be used in the following test.
The Codium fragile extract liquid was diluted with PBS to have a concentration of 1%, and then used in the following test.
Each antibacterial agent used in the test was prepared to have a concentration that was two times a test concentration for mixing of the antibacterial agent with the Codium fragile extract liquid, a fraction having a predetermined molecular weight, or PBS at 1:1.
As a CPC solution, a stock solution (2% CPC) was obtained by dissolving 0.2 g of CPC in 10 mL of ethanol solution. This solution was diluted 20-fold with purified water to prepare a 0.1% CPC (5% ethanol) solution. This solution was further diluted with a 5% ethanol solution to prepare 0.05% CPC (5% ethanol) and 0.02% CPC (5% ethanol).
As a benzalkonium chloride solution, a stock solution (2% benzalkonium chloride) was obtained by dissolving 0.2 g of benzalkonium chloride in 10 mL of ethanol solution. This solution was diluted 5-fold with ethanol to prepare an ethanol solution of 0.4% benzalkonium chloride solution. This solution was diluted 20-fold with purified water to prepare 0.02% benzalkonium chloride (5% ethanol). This was further diluted 2-fold with a 5% ethanol solution to prepare a 0.01% benzalkonium chloride (5% ethanol) solution. This solution was diluted 2 times with a 5% ethanol solution to prepare a 0.005% benzalkonium chloride (5% ethanol) solution.
A 20% aqueous chlorhexidine solution was used as an undiluted solution of chlorhexidine solution. The chlorhexidine solution was diluted 20-fold with ethanol and purified water to prepare a 0.1% chlorhexidine (5% ethanol) solution. This solution was further diluted 5-fold with a 5% ethanol solution to prepare a 0.02% chlorhexidine (5% ethanol) solution. This solution was further diluted 10-fold with 5% ethanol to prepare a 0.002% chlorhexidine (5% ethanol) solution.
As an IPMP solution, a stock solution (4% IPMP) was obtained by dissolving 0.4 g of IPMP in 10 mL of ethanol solution. This solution was diluted 20-fold with ethanol and purified water to prepare a 0.2% IPMP (20% ethanol) solution. This solution was further diluted 2-fold with 20% ethanol to prepare a 0.1% IPMP (20% ethanol) solution. This solution was further diluted with 20% ethanol to prepare a 0.04% IPMP (20% ethanol) solution.
Two or more hours after toothbrushing, saliva was collected. Stimulated saliva secreted by mastication of Parafilm was collected, and then centrifuged at 4° C. and 2,000×g for 30 minutes. A supernatant was filtered with suction through a cellulose mixed ester membrane filter (0.1 μm, 90 mm), and the saliva was diluted with PBS to have an appropriate concentration.
100 μL of the human saliva prepared as describe above was added to a 96-well multiplate (made from polystyrene, MultiSorp, manufactured by Thermo Fisher Scientific Inc.), the multiplate was sealed, and incubation was carried out at 37° C. for 1 hour. Each well was then cleaned twice with 300 μL of PBS, 100 μL of each of the samples described above was added, the multiplate was sealed, and incubation was carried out at 37° C. for 1 hour. Subsequently, the liquid was discarded from each of the wells, the wells were cleaned twice with 300 μL of PBS, and 100 μL of the bacterial culture prepared such that OD660 was 0.125 was added to each well.

For the compound `CCCCCCCCCCCCCCCC[n+]1ccccc1` [CPC, cetylpyridinium chloride], the Adhesion rate reads like this: (0.010 (w/v %) CPC, relative value, FIG. 1) 92.6; (0.025 (w/v %) CPC, relative value, FIG. 1) 93.4; (0.050 (w/v %) CPC, relative value, FIG. 1) 98.9.

In the case of `Cc1cc(O)ccc1C(C)C` [IPMP, 3-methyl-4-isopropyl methylphenol], the Adhesion rate came to 91.5 (0.020 (w/v %) IPMP, FIG. 4); 84.3 (0.050 (w/v %) IPMP, FIG. 4); 70.7 (0.100 (w/v %) IPMP, FIG. 4).

With `[H]/N=C(\N/C(=N/[H])NCCCCCCNC(=N)NC(=N)Nc1ccc(Cl)cc1)Nc1ccc(Cl)cc1` [chlorhexidine], the Adhesion rate runs as follows: (0.010 (w/v %) chlorhexidine, FIG. 3) 85.9; (0.025 (w/v %) chlorhexidine, FIG. 3) 63.3; (0.050 (w/v %) chlorhexidine, FIG. 3) 62.4.

Turning to benzalkonium chloride, the Adhesion rate (0.010 (w/v %) benzalkonium chloride, FIG. 2) stood at 103; the Adhesion rate (0.025 (w/v %) benzalkonium chloride, FIG. 2) is recorded as 98.4; the Adhesion rate (0.050 (w/v %) benzalkonium chloride, FIG. 2) was determined as 93.8.
